Assay results from patent US9357773B2, “Herbicidal agents containing aclonifen” (BAYER CROPSCIENCE AKTIENGESELLSCHAFT, priority 2012, dated 2016).

Legend:
[1] = test system: Lolium spp. resistant to HRAC group B; assay: Greenhouse trial, post-emergence action against resistant ryegrass biotype (HRAC group B); assay type: in vivo; details: post-emergence (PO, BBCH 11), about 3 weeks after application
Experimental: (§1) In the standard design of the test, seeds of various broad-leaved weed and weed grass biotypes (origins) were sown in a 8-13 cm diameter pot filled with natural soil of a standard field soil (loamy silt; non-sterile) and covered with a covering soil layer of about 1 cm. The pots were then cultivated in a greenhouse (12-16 h light, temperature day 20-22° C., night 15-18° C.) until the time of application. The pots were treated on a laboratory track sprayer with spray liquors comprising the compositions according to the invention, mixtures of the prior art or components used individually. Application of the active compounds or active compound combinations formulated as WG, WP, EC or otherwise was carried out at the appropriate growth stages of the plants. The amount of water used for spray application was 100-600 l/ha. After the treatment, the plants were returned to the greenhouses.
(§2) About 3 weeks after the application, the soil action or/and foliar action was assessed visually according to a scale of 0-100% in comparison to an untreated comparative group: 0%=no noticable effect compared to the untreated comparative group; 100%=full effect compared to the untreated comparative group.
(§3) (Notes: the term “seeds” also includes vegetative propagation forms such as, for example, rhizome pieces; abbreviations used: h light=hours of illumination, g of AS/ha=grams of active substance per hectare, l/ha=liter per hectare, S=sensitive, R=resistant) • 1. Pre-emergence action against weeds: seeds of various broad-leaved weed and weed grass biotypes (origins) were sown in a 8-13 cm diameter pot filled with natural soil of a standard field soil (loamy silt; non-sterile) and covered with a covering soil layer of about 1 cm. The pots were then cultivated in a greenhouse (12-16 h light, temperature day 20-22° C., night 15-18° C.) until the time of application. […]

[2] = test system: Lolium spp. resistant to HRAC group A; assay: Greenhouse trial, post-emergence action against resistant ryegrass biotype (HRAC group A); assay type: in vivo; details: post-emergence (PO, BBCH 11), about 3 weeks after application
Experimental: as §1, §2, §3

Nc1c([N+](=O)[O-])ccc(Oc2ccccc2)c1Cl [(A) aclonifen, 2-chloro-6-nitro-3-phenoxybenzenamine] was tested, and the “effect (visual scale 0-100% vs untreated)” value ([1]; 225 g of AS/ha) was 50% and the “effect (visual scale 0-100% vs untreated)” value ([2]; 225 g of AS/ha) was 25%.
In the case of Cn1nc(C(F)(F)F)c(CS(=O)(=O)C2=NOC(C)(C)C2)c1OC(F)F [(B) pyroxasulfone, 3-[[[5-(difluoromethoxy)-1-methyl-3-(trifluoromethyl)-1H-pyrazol-4-yl]methyl]sulfonyl]-4,5-dihydro-5,5-dimethylisoxazole], the “effect (visual scale 0-100% vs untreated)” value ([1]; 13 g of AS/ha) is reported as 70% and the “effect (visual scale 0-100% vs untreated)” value ([2]; 13 g of AS/ha) is reported as 45%.
For O=C(Nc1ccc(F)cc1)c1cccc(Oc2cccc(C(F)(F)F)c2)n1 [(C) picolinafen, N-(4-fluorophenyl)-6-[3-(trifluoromethyl)phenoxy]-2-pyridinecarboxamide], the “effect (visual scale 0-100% vs untreated)” value ([1]; 25 g of AS/ha) was 5% and the “effect (visual scale 0-100% vs untreated)” value ([2]; 25 g of AS/ha) was 10%.
